Results as given in PMC7269481, “ZN148 Is a Modular Synthetic Metallo-β-Lactamase Inhibitor That Reverses Carbapenem Resistance in Gram-Negative Pathogens In Vivo” (Antimicrobial Agents and Chemotherapy, 2020).
Like-named read-outs stand apart in the source and are kept apart here.

Key:
[1] = system: K. pneumoniae with NDM (n=95); test: Meropenem MIC distribution, K. pneumoniae with NDM; format: cell-based; settings: MEM alone or +50 µM ZN148
Protocol: (§1) MICs of carbapenems alone and in combination with inhibitors were determined by broth microdilution according to the Clinical and Laboratory Standards Institute (CLSI) guidelines ([48]) using either premade plates (TREK Diagnostic Systems/Thermo Fisher Scientific, East Grinstead, United Kingdom) with meropenem or in-house-prepared plates with meropenem, imipenem, and doripenem. ZN148 and other inhibitors were tested at a fixed concentration of 50 μM. Cation-adjusted Mueller-Hinton medium (TREK Diagnostic Systems/Thermo Fisher Scientific; Becton Dickinson, Franklin Lakes, NJ) were used as growth medium. The plates were incubated for 20 h at 37°C. ZN148, ZN222, ZN223, ZN228, and TPA were initially tested in combination with meropenem using two indicator strains: NDM-1-producing K. pneumoniae ([49], [50]) and VIM-2-producing P. aeruginosa ([51]). The activity of ZN148 were subsequently tested against two extended strain collections: (i) in combination with meropenem against MBL-producing Enterobacterales (n = 62), MBL-producing P. aeruginosa (n = 9) and MBL- and class D carbapenemase-coproducing Enterobacterales (n = 5) from the strain collection at the Norwegian National Advisory Unit on Detection of Antimicrobial Resistance and (ii) in combination with meropenem, imipenem, and doripenem against globally collected MBL-producing E. coli (n = 87), K. pneumoniae (n = 85), P. aeruginosa (n = 52), and A. baumannii (n = 6), MBL- and class A/D carbapenemase-coproducing E. coli (n = 11), K. pneumoniae (n = 15) and A. baumannii (n = 7) at IHMA Europe, Sàrl, Switzerland. E. coli ATCC 25922 and P. aeruginosa ATCC 27853 were used as quality control strains. The MBL inhibitors were also tested for intrinsic antibacterial activity against the strains.

[2] = system: NDM-1-producing K. pneumoniae 50752501; test: Meropenem MIC of the in vivo strain; format: cell-based; settings: Klebsiella pneumoniae; read-out: MEM MIC
Protocol: (§2) MICs of carbapenems alone and in combination with inhibitors were determined by broth microdilution according to the Clinical and Laboratory Standards Institute (CLSI) guidelines ([48]) using either premade plates (TREK Diagnostic Systems/Thermo Fisher Scientific, East Grinstead, United Kingdom) with meropenem or in-house-prepared plates with meropenem, imipenem, and doripenem. ZN148 and other inhibitors were tested at a fixed concentration of 50 μM. Cation-adjusted Mueller-Hinton medium (TREK Diagnostic Systems/Thermo Fisher Scientific; Becton Dickinson, Franklin Lakes, NJ) were used as growth medium. The plates were incubated for 20 h at 37°C. ZN148, ZN222, ZN223, ZN228, and TPA were initially tested in combination with meropenem using two indicator strains: NDM-1-producing K. pneumoniae ([49], [50]) and VIM-2-producing P. aeruginosa ([51]). […]

[3] = system: class A carbapenemase (KPC)-producing E. coli; test: Carbapenem MIC, class A carbapenemase-producing E. coli; format: cell-based; settings: carbapenem alone or with 50µM ZN148
Protocol: as §1

[4] = system: K. pneumoniae with VIM (n=17); test: Meropenem MIC distribution, K. pneumoniae with VIM; format: cell-based; settings: MEM alone or +50 µM ZN148
Protocol: as §1

[5] = system: M. morganii co-producing MBLs and class A/D serine carbapenemases; test: Meropenem MIC, M. morganii co-producing NDM-1 and OXA-48; format: cell-based; settings: Morganella morganii; NDM-1 + OXA-48 strain; meropenem alone or with 50µM ZN148
Protocol: as §2

NDM-1 = target: T1, NDM-1 (Klebsiella pneumoniae, UniProt C7C422); test: Zinc content determination by ICP-MS, NDM-1; format: biochemical; settings: ICP-MS after preincubation
T1 construct: made in house

[6] = system: strains coproducing MBLs and class D carbapenemases; test: Carbapenem potentiation, strains coproducing MBLs and class D carbapenemases; format: cell-based; settings: with a few exceptions; 50 μM ZN148
Protocol: as §2

[7] = system: strains harboring only the class A carbapenemase KPC; test: Carbapenem potentiation, strains with only KPC; format: cell-based; settings: 50 μM ZN148
HepG2 cells = test: In vitro toxicity, alamarBlue viability; format: cell-based, human; settings: Homo sapiens, HepG2, 24 h
Protocol: The human hepatoblastoma HepG2 cell line (HB-8065; ATCC, Manassas, VA) was cultured in DMEM-GlutaMAX (5.5 mM glucose; Thermo Fisher) supplemented with 10% fetal bovine serum (Sigma-Aldrich), streptomycin (100 μg/ml; Gibco/Thermo Fisher), and penicillin (100 U/ml; Gibco/Thermo Fisher) at 37°C in 5% CO2. For viability assays, cells were seeded in white 96-well Nunclon plates (Sigma-Aldrich) at a density of 20,000 cells/well and left overnight to adhere. ZN148 and TPA (Sigma-Aldrich, Darmstadt, Germany) dissolved in dimethyl sulfoxide (DMSO; (Sigma-Aldrich) were added to the white 96-well plates containing 20,000 HepG2 cells/well at concentrations ranging from 1 to 1 × 10^−3 mM (a DMSO concentration kept below 1%), followed by incubation for 24 h at 37°C in 5% CO2. After 24 h, alamarBlue cell viability reagent (Thermo Fisher, Carlsbad, CA) was added (10% final concentration), followed by incubation for 4 h at 37°C. The proportion of viable cells in each well was measured in a fluorescence plate reader (Clariostar; BMGlabtech, Germany) at excitation 550 nm/emission 603 nm ([56]). Data from eight replicates were fitted by nonlinear regression to determine IC50 values using Prism (GraphPad Software, Inc.).

[8] = system: NDM-1-producing K. pneumoniae K66-45; test: Serial passage on increasing meropenem; format: cell-based; settings: for fold increase in meropenem MIC after serial passaging: compared to control culture / original MIC
Protocol: K. pneumoniae K66-45 was passaged in a 96-well microtiter plate with a consistent concentration of ZN148 and increasing concentrations of meropenem. To start the passaging, cation-adjusted Mueller-Hinton broth II medium (Sigma-Aldrich) containing 0.0625 mg/liter (0.5× MIC) and 50 or 100 μM ZN148 was inoculated with 1% of overnight culture, which was grown without selection. Six biological replicates were passaged in parallel, and from each of the six overnight cultures four wells were inoculated, resulting in 24 subcultures for each ZN148 concentration. After 24 h of incubation at 37°C and shaking at 180 rpm, the wells were visually checked for growth.

[9] = system: 173 MBL-producing E. coli and K. pneumoniae strains; test: Doripenem and imipenem MIC, MBL-producing E. coli and K. pneumoniae subset; format: cell-based; settings: 50 μM ZN148; 173 strains
Protocol: as §2

T1 sequence (C7C422 29-270, looked up): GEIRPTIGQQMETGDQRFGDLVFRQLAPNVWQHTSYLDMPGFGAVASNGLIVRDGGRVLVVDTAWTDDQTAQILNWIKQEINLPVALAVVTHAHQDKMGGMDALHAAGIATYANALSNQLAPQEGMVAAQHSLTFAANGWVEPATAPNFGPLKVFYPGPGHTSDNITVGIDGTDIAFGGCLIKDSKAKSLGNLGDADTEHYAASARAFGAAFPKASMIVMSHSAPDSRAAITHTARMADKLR

**Q.** How did the “No. of strains with indicated MIC” value ([1]; MIC 2 mg/L) turn out when `C[C@@H](O)[C@H]1C(=O)N2C(C(=O)O)=C(S[C@@H]3CN[C@H](C(=O)N(C)C)C3)[C@H](C)[C@H]12` [meropenem] was run?
**A.** 1

**Q.** And the “No. of strains with indicated MIC” value ([1]; MIC 8 mg/L)?
**A.** 1

**Q.** What about the “No. of strains with indicated MIC” value ([1]; MIC 16 mg/L) of the same compound?
**A.** 3

**Q.** And the “No. of strains with indicated MIC” value ([1]; MIC 32 mg/L)?
**A.** 10

**Q.** What about the “No. of strains with indicated MIC” value ([1]; MIC ≥64 mg/L) of the same compound?
**A.** 80

**Q.** And the MIC [2]?
**A.** 64 µg/mL

**Q.** What about the MIC ([3]; Escherichia coli, KPC-2 strains, one value per strain, read-out: MIC) of the same compound?
**A.** 8 µg/mL

**Q.** What about the MIC ([3]; Escherichia coli, KPC-3 strain, read-out: MIC) of the same compound?
**A.** 2 µg/mL

**Q.** What about the MIC ([3]; KPC-2 strains, one value per strain, listed as MEM) of the same compound?
**A.** 4 µg/mL

**Q.** What about the “No. of strains with indicated MIC” value ([4]; MIC 2 mg/L) of the same compound?
**A.** 2

**Q.** What about the “No. of strains with indicated MIC” value ([4]; MIC 4 mg/L) of the same compound?
**A.** 2

**Q.** And the “No. of strains with indicated MIC” value ([4]; MIC 8 mg/L)?
**A.** 1

**Q.** And the “No. of strains with indicated MIC” value ([4]; MIC 16 mg/L)?
**A.** 4

**Q.** And the “No. of strains with indicated MIC” value ([4]; MIC 32 mg/L)?
**A.** 3

**Q.** And the “No. of strains with indicated MIC” value ([4]; MIC ≥64 mg/L)?
**A.** 5

**Q.** And the MIC [5]?
**A.** 8 µg/mL

**Q.** Which results are given for `CN(C[C@H](O)[C@@H](O)[C@H](O)[C@H](O)CO)C(=O)c1ccc(CN(Cc2ccccn2)Cc2ccccn2)nc1` [ZN148]?
**A.** zinc removed from enzyme (NDM-1): ~1.3 molar equivalents; potentiation of meropenem, doripenem, and imipenem [6]: no potentiation; potentiation of meropenem, doripenem, or imipenem [7]: no potentiation; IC50 (HepG2 cells): > 100 µM; maximum meropenem MIC reached by evolved cultures ([8]; 50 µM ZN148, 8 passages): 8 µg/mL; maximum meropenem MIC reached by evolved cultures ([8]; 100 µM ZN148, 6 passages): 2 µg/mL; fold increase in meropenem MIC after serial passaging ([8]; in the presence of 50 μM ZN148): 64 fold; fold increase in meropenem MIC after serial passaging ([8]; in the presence of 100 μM ZN148): 16 fold; strains with doripenem MIC reduced to susceptible levels [9]: > 99%; strains with imipenem MIC reduced to susceptible levels [9]: > 99%
